Laboratory results: US20240002391A1, “4-ALKOXYPYRROLO[2,1-F][1,2,4]TRIAZINES AND PREPARATION AND USES THEREOF” (BioSplice Therapeutics, Inc., priority 2022, published 2024)

How the values were obtained:
[1] = biological target: recombinant DYRK1A kinase (Homo sapiens (Human), UniProt Q13627); test: DYRK1A kinase assay (Ser/Thr 18 peptide Z-lyte FRET); format: biochemical; settings: DYRK1A kinase activity, Z-lyte Ser/Thr 18 peptide, 15 μM ATP; method text calls the value IC50; read-out: EC50 (the source's name)
Procedure, shortened: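 Steps: combine 0.25 μg/mL kinase, 15 μM ATP and 4 μM peptide with test compound; incubate 1 h at room temperature; add diluted development reagent for another hour; read coumarin and fluorescein emission at Ex 400. The emission ratio yields percent phosphorylation, from which IC50 is derived.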

[2] = test system: Tau phosphorylation at Thr212 (pThr212) in HEK293T cells transfected with DYRK1A and MAPT; test: Tau phosphorylation phosphoTau (Thr212) AlphaLISA assay in HEK293T cells transfected with DYRK1A and MAPT; format: cell-based; settings: HEK-293T, HEK293T cells transiently transfected with human DYRK1A and MAPT, compound treatment 18-24 hours, read-out: pTau (Thr212) EC50
Experimental: Representative compounds were screened using the assay procedure for tau phosphorylation activity described below.
HEK293T cells (ATCC, CRL3216) cultured in DMEM (Thermo Fisher Scientific, 10566024) supplemented with 10% FBS (Coming, 35-011—CV) and Penicillin/Streptomycin (Thermo Fisher Scientific, 15140163) were seeded in a 75 cm^2 flask at 8.1×10^6 cells/flask. The HEK293T cells were then transiently transfected with 5 μg DYRK1A (NM_001396) human untagged clone (OriGene, SC314641) and 2.5 μg MAPT (441 a.a. Tau gene) (NM_005910) human untagged clone (OriGene, TP313312) using Lipofectamine 3000 (Thermo Fisher Scientific, L30000015) and incubated for 20-30 hours in a humidified incubator at 37° C. and 5% CO^2. Post-incubation, HEK293T cells transfected with the DYRK1A and MAPT expression vectors were harvested and seeded in BioCoat poly-D lysine coated 96-well plates (Coming, 354461) at 3×10^4 cells/well.
The above synthesized compounds were screened using the cell assay procedure to assess decreased Tau phosphorylation at Thr212 (pThr212) described below.
Each compound was dissolved in DMSO (Sigma-Aldrich, D8418-100 mL) as a 10 mM stock. 10 mM stocks were serially diluted 1:3, 10-point dose-response curve and added to the cells with a final concentration ranging from 20 μM to 1.1 nM. Cells were treated with compounds in duplicate and incubated for 18-24 hours in a humidified incubator at 37° C. and 5% CO^2.
Following the overnight compound treatment, cells were lysed with 1X Alpha Surefire Ultra Lysis Buffer (Perkin Elmer, ALSU-LB-100ML) complemented with 1X Halt Phosphatase Inhibitor Cocktail (Thermo Fisher Scientific, 78427) and 1X Halt Protease Inhibitor Cocktail (Thermo Fisher Scientific, 78438). Lysates were spun down at 12,000 g for 10 min to remove any cellular debris and 5 μL of lysates were dispensed into a 384-well Opti-Plate (Perkin Elmer, 6007290) for the measurement of Tau phosphorylation in the phosphoTau (Thr212) AlphaLISA assay. Donor antibody, biotinylated HT7Tau (Thermo Fisher Scientific, MN1000B), and acceptor antibody, pThr212Tau (Thermo Fisher Scientific, 44740G) were both added to the cell lysates at a final concentration of 3 nM and incubated for 1 hour at room temperature. Following incubation of the lysates with the donor and acceptor antibodies, anti-rabbit IgG(Fc specific) AlphaLISA acceptor beads (Perkin Elmer, AL104C) were added at a 10 ug/mL final concentration and incubated for 1 hour at room temperature protected from light. Lastly, AlphaScreen streptavidin donor beads (PerkinElmer, 6760002) were added at 40 ug/mL final concentration and incubated for 1 hour at room temperature protected from light. Plates were read at […] on the EnVision Multilabel Plate Reader (Perkin Elmer). The phospho-Tau (Thr212) AlphaLISA signal was used to plot, draw the curve fitting, and determine each compound's EC50 in Prism (GraphPad).

Row | SMILES | IC50 [1] [nM] | EC50 [2] [nM]
1 | CC[C@]1(O)CC[C@H](Nc2nc(OC)c3c(-c4cnc5nccn5c4)ccn3n2)CC1 [Compound 258, trans-1-Ethyl-4-((5-(imidazo[1,2-a]pyrimidin-6-yl)-4-methoxypyrrolo[2,1-f][1,2,4]triazin-2-yl)amino)cyclohexan-1-ol] | 0.8 | 8.9
2 | COc1nc(NC2CC3(COC3)C2)nn2ccc(-c3cnc4nccn4c3)c12 [Compound 272, 5-(Imidazo[1,2-a]pyrimidin-6-yl)-4-methoxy-N-(2-oxaspiro[3.3]heptan-6-yl)pyrrolo[2,1-f][1,2,4]triazin-2-amine] | 1.3 | 13.4
3 | COc1nc(NC2CCC3(CC2)COC3)nn2ccc(-c3cnc4nccn4c3)c12 [Compound 276, 5-(Imidazo[1,2-a]pyrimidin-6-yl)-4-methoxy-N-(2-oxaspiro[3.5]nonan-7-yl)pyrrolo[2,1-f][1,2,4]triazin-2-amine] | 0.6 | 10.1
4 | COc1nc(N[C@H]2CCN(C)C[C@H]2F)nn2ccc(-c3ccc4ncccc4c3)c12 [Compound 310, N-((3R,4S)-3-Fluoro-1-methylpiperidin-4-yl)-4-methoxy-5-(quinolin-6-yl)pyrrolo[2,1-f][1,2,4]triazin-2-amine] | 4.7 | 109
5 | COc1nc(N[C@H]2CCN(C3COC3)C[C@H]2F)nn2ccc(-c3ccc4ncccc4c3)c12 [Compound 318, N-((3R,4S)-3-Fluoro-1-(oxetan-3-yl)piperidin-4-yl)-4-methoxy-5-(quinolin-6-yl)pyrrolo[2,1-f][1,2,4]triazin-2-amine] | 4.2 | 75.4

Second part, led by results:

Row | IC50 [1] [nM] | SMILES | EC50 [2] [nM]
6 | 2.2 | COc1nc(N[C@@H]2CN(C(C)=O)C[C@@H]2F)nn2ccc(-c3ccc4nccnc4c3)c12 [Compound 352, 1-((3S,4R)-3-Fluoro-4-((4-methoxy-5-(quinoxalin-6-yl)pyrrolo[2,1-f][1,2,4]triazin-2-yl)amino)pyrrolidin-1-yl)ethan-1-one] | 39.4
7 | 1.4 | C[C@]1(O)CC[C@H](Nc2nc(OC3COC3)c3c(-c4ccc5nccnc5c4)ccn3n2)CC1 [Compound 392, trans-1-Methyl-4-((4-(oxetan-3-yloxy)-5-(quinoxalin-6-yl)pyrrolo[2,1-f][1,2,4]triazin-2-yl)amino)cyclohexan-1-ol] | 25.2
8 | 2.3 | COc1nc(N[C@H]2CC[C@](C)(O)CC2)nn2ccc(-c3cc(F)c4nccn4c3)c12 [Compound 431, (1r,4r)-4-((5-(8-Fluoroimidazo[1,2-a]pyridin-6-yl)-4-methoxypyrrolo[2,1-f][1,2,4]triazin-2-yl)amino)-1-methylcyclohexan-1-ol] | 129
9 | 3.6 | COc1nc(N[C@@H]2CCC(F)(F)C2)nn2ccc(-c3cnc4nccn4c3)c12 [Compound 943, (R)—N-(3,3-Difluorocyclopentyl)-5-(imidazo[1,2-a]pyrimidin-6-yl)-4-methoxypyrrolo[2,1-f][1,2,4]triazin-2-amine] | 57.5
